Results: patent US20150105252A1, “SUBSTITUTED PYRAZOLES AS HERBICIDES” (E I DU PONT DE NEMOURS AND COMPANY, priority 2013, published 2015)

Columns and labels:
morningglory [1] = assay: Test A postemergence; format: in vivo, Ipomoea spp.; conditions: Postemergence, 1000 g ai/ha; visual rating after approx. 10 days, 0 to 100 scale (0 no effect, 100 complete control)
In short: (§1)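 Injury readout: eye-scored versus untreated controls, 0 to 100. Exposure period: ~10 days, greenhouse. Application: soil-directed spray over sown seed (pre) or spray on seedlings 2–10 cm tall with one or two leaves (post), compound carried in non-phytotoxic solvent including surfactant.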

foxtail, giant [2] = assay: Test A preemergence; format: in vivo, Setaria faberii; conditions: Preemergence, 1000 g ai/ha; 0 to 100 scale, 0 no effect, 100 complete control
In short: as §1

crabgrass, large [3] = assay: Test A postemergence; format: in vivo, Digitaria sanguinalis; conditions: Postemergence, 1000 g ai/ha; visual rating after approx. 10 days, 0 to 100 scale (0 no effect, 100 complete control)
In short: as §1

rice = assay: Test C flooded paddy test; format: in vivo, Oryza sativa; conditions: Flood
From the text: (§2) At time of treatment, test pots were flooded to 3 cm above the soil surface, treated by application of test compounds directly to the paddy water, and then maintained at that water depth for the duration of the test. Treated plants and controls were maintained in a greenhouse for 13 to 15 days, after which time all species were compared to controls and visually evaluated. […] A dash (-) response means no test result.

pigweed [4] = assay: Test A postemergence; format: in vivo, Amaranthus retroflexus; conditions: Postemergence, 1000 g ai/ha; visual rating after approx. 10 days, 0 to 100 scale (0 no effect, 100 complete control)
In short: as §1

sedge, umbrella = assay: Test C flooded paddy test; format: in vivo, Cyperus difformis; conditions: Flood
From the text: as §2

wheat [5] = assay: Test A postemergence; format: in vivo, Triticum aestivum; conditions: Postemergence, 1000 g ai/ha; visual rating after approx. 10 days, 0 to 100 scale (0 no effect, 100 complete control)
In short: as §1

wheat [6] = assay: Test A preemergence; format: in vivo, Triticum aestivum; conditions: Preemergence, 1000 g ai/ha; 0 to 100 scale, 0 no effect, 100 complete control
In short: as §1

velvetleaf [7] = assay: Test A postemergence; format: in vivo, Abutilon theophrasti; conditions: Postemergence, 1000 g ai/ha; visual rating after approx. 10 days, 0 to 100 scale (0 no effect, 100 complete control)
In short: as §1

pigweed [8] = assay: Test A preemergence; format: in vivo, Amaranthus retroflexus; conditions: Preemergence, 1000 g ai/ha; 0 to 100 scale, 0 no effect, 100 complete control
In short: as §1

foxtail, giant [9] = assay: Test A postemergence; format: in vivo, Setaria faberii; conditions: Postemergence, 1000 g ai/ha; visual rating after approx. 10 days, 0 to 100 scale (0 no effect, 100 complete control)
In short: as §1

velvetleaf [10] = assay: Test A preemergence; format: in vivo, Abutilon theophrasti; conditions: Preemergence, 1000 g ai/ha; 0 to 100 scale, 0 no effect, 100 complete control
In short: as §1

crabgrass, large [11] = assay: Test A preemergence; format: in vivo, Digitaria sanguinalis; conditions: Preemergence, 1000 g ai/ha; 0 to 100 scale, 0 no effect, 100 complete control
In short: as §1

barnyardgrass [12] = assay: Test A postemergence; format: in vivo, Echinochloa crus-galli; conditions: Postemergence, 1000 g ai/ha; visual rating after approx. 10 days, 0 to 100 scale (0 no effect, 100 complete control)
In short: as §1

barnyardgrass [13] = assay: Test A preemergence; format: in vivo, Echinochloa crus-galli; conditions: Preemergence, 1000 g ai/ha; 0 to 100 scale, 0 no effect, 100 complete control
In short: as §1

corn [14] = assay: Test A postemergence; format: in vivo, Zea mays; conditions: Postemergence, 1000 g ai/ha; visual rating after approx. 10 days, 0 to 100 scale (0 no effect, 100 complete control)
In short: as §1

morningglory [15] = assay: Test A preemergence; format: in vivo, Ipomoea spp.; conditions: Preemergence, 1000 g ai/ha; 0 to 100 scale, 0 no effect, 100 complete control
In short: as §1

ducksalad = assay: Test C flooded paddy test; format: in vivo, Heteranthera limosa; conditions: Flood
From the text: as §2

barnyardgrass [16] = assay: Test C flooded paddy test; format: in vivo, Echinochloa crus-galli; conditions: Flood
In short: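 Under a constant 3 cm flood, test compounds went directly into the paddy water. Following 13 to 15 days of greenhouse growth, treated species and controls were compared by eye.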

corn [17] = assay: Test A preemergence; format: in vivo, Zea mays; conditions: Preemergence, 1000 g ai/ha; 0 to 100 scale, 0 no effect, 100 complete control
In short: as §1

[18] = 31 g ai/ha, scale 0 to 100 (0 no effect, 100 complete control)
[19] = 62 g ai/ha, scale 0 to 100 (0 no effect, 100 complete control)

| SMILES | Morningglory plant response rating (morningglory [1]) | Foxtail, Giant plant response rating (foxtail, giant [2]) | Crabgrass, Large plant response rating (crabgrass, large [3]) | Plant response rating, Rice (rice; [18]) | Plant response rating, Rice (rice; [19]) | Plant response rating, Rice (rice; 125 g ai/ha, scale 0 to 100) | Plant response rating, Rice (rice; 250 g ai/ha, scale 0 to 100) | Pigweed plant response rating (pigweed [4]) | Plant response rating, Sedge, Umbrella (sedge, umbrella; [18]) | Plant response rating, Sedge, Umbrella (sedge, umbrella; [19]) | Plant response rating, Sedge, Umbrella (sedge, umbrella; 125 g ai/ha, scale 0 to 100) | Plant response rating, Sedge, Umbrella (sedge, umbrella; 250 g ai/ha, scale 0 to 100) | Wheat plant response rating (wheat [5]) | Wheat plant response rating (wheat [6]) | Velvetleaf plant response rating (velvetleaf [7]) | Pigweed plant response rating (pigweed [8]) | Foxtail, Giant plant response rating (foxtail, giant [9]) | Velvetleaf plant response rating (velvetleaf [10]) | Crabgrass, Large plant response rating (crabgrass, large [11]) | Barnyardgrass plant response rating (barnyardgrass [12]) | further results |
| --- | --- | --- | --- | --- | --- | --- | --- | --- | --- | --- | --- | --- | --- | --- | --- | --- | --- | --- | --- | --- | --- |
| CCCNC(=O)c1cc(CCC)n(Cc2cccc(OC(F)(F)F)c2)n1 [Compound 35] | 100 | 100 | 70 | 0 | 0 | 0 | 0 | 90 | 20 | 30 | 50 | 80 | 20 | 0 | 100 | 90 | 40 | 50 | 100 | 30 | Barnyardgrass plant response rating (barnyardgrass [13]): 70; Corn plant response rating (corn [14]): 20; Morningglory plant response rating (morningglory [15]): 50; Plant response rating, Ducksalad (ducksalad; [18]): 0; Plant response rating, Ducksalad (ducksalad; [19]): 20; Plant response rating, Ducksalad (ducksalad; 125 g ai/ha, scale 0 to 100): 20; Plant response rating, Ducksalad (ducksalad; 250 g ai/ha, scale 0 to 100): 60; Plant response rating, Barnyardgrass (barnyardgrass [16]; [18]): 0; Plant response rating, Barnyardgrass (barnyardgrass [16]; [19]): 0; Plant response rating, Barnyardgrass (barnyardgrass [16]; 125 g ai/ha, scale 0 to 100): 10; Plant response rating, Barnyardgrass (barnyardgrass [16]; 250 g ai/ha, scale 0 to 100): 10; Corn plant response rating (corn [17]): 0 |
| CCc1cc(C(=O)NCC2CC2)nn1Cc1cccc(OC(F)(F)F)c1 [Compound 53] | 90 | 90 | 50 | 0 | 0 | 10 | 30 | 80 | 0 | 0 | 0 | 80 | 30 | 0 | 80 | 100 | 50 | 30 | 100 | 40 | Barnyardgrass plant response rating (barnyardgrass [13]): 40; Corn plant response rating (corn [14]): 40; Morningglory plant response rating (morningglory [15]): 40; Plant response rating, Ducksalad (ducksalad; [18]): 0; Plant response rating, Ducksalad (ducksalad; [19]): 0; Plant response rating, Ducksalad (ducksalad; 125 g ai/ha, scale 0 to 100): 0; Plant response rating, Ducksalad (ducksalad; 250 g ai/ha, scale 0 to 100): 40; Plant response rating, Barnyardgrass (barnyardgrass [16]; [18]): 0; Plant response rating, Barnyardgrass (barnyardgrass [16]; [19]): 0; Plant response rating, Barnyardgrass (barnyardgrass [16]; 125 g ai/ha, scale 0 to 100): 0; Plant response rating, Barnyardgrass (barnyardgrass [16]; 250 g ai/ha, scale 0 to 100): 15; Corn plant response rating (corn [17]): 10 |
